Results: ChEMBL document CHEMBL5390254, “Discovery and Optimization of Novel hDHODH Inhibitors for the Treatment of Inflammatory Bowel Disease” (J Med Chem, 2023)
The source made the active and inactive calls. No cut-off for these calls is given here.

Assays:
[1] = Acute toxicity in BALB/c mouse assessed as changes in CK level in serum at 600 mg/kg,po and measured after 14 days by Biochemistry analysis; format: organism-based; settings: in vivo, 336 h, time 14 day
[2] = AUCt in Sprague-Dawley rat at 15 mg/kg, po and measured upto 48 hrs by LC-MS/MS analysis; format: ADME, organism-based; parameters: dose 15 mg/kg, time < 48 hrs, route po; settings: in vivo
[3] = Acute toxicity in BALB/c mouse assessed as tissue damage in liver at 600 mg/kg,po and measured after 14 days by hematoxylin and eosin staining based microscopy; format: organism-based; settings: in vivo, 336 h, time 14 day
[4] = Acute toxicity in BALB/c mouse assessed as tissue damage in kidney at 600 mg/kg,po and measured after 14 days by hematoxylin and eosin staining based microscopy; format: organism-based; settings: in vivo, 336 h, time 14 day
[5] = Acute toxicity in po dosed BALB/c mouse assessed as maximum tolerate dose; format: organism-based; settings: in vivo
Mus musculus [6] = assay: Anti-inflammatory activity against DSS-induced acute ulcerative colitis in C57BL/6 mouse model assessed as decrease in IL-6 protein level in colon at 20 to 80 mg/kg, po QD for 6 days by ELISA; format: functional, organism-based; settings: dose 20-80 mg/kg, time 6.0 day
Mus musculus [7] = assay: Anti-inflammatory activity against DSS-induced acute ulcerative colitis in C57BL/6 mouse model assessed as decrease in body weight loss at 40 mg/kg, po QD for 6 days (Rvb= 25.6%); format: functional; parameters: scale not given: the % may be the effect or the level left; settings: time 6 day
Mus musculus [8] = assay: Anti-inflammatory activity against DSS-induced acute ulcerative colitis in C57BL/6 mouse model assessed as decrease in IL-1beta production in colon at 40 mg/kg, po QD for 6 days by ELISA; format: functional; parameters: scale not given: the % may be the effect or the level left; settings: time 6 day
[9] = Oral bioavailability in Sprague-Dawley rat at 15 mg/kg and measured upto 48 hrs by LC-MS/MS analysis; format: ADME, organism-based; settings: in vivo
Mus musculus [10] = assay: Anti-inflammatory activity against DSS-induced acute ulcerative colitis in C57BL/6 mouse model assessed as decrease in IL-17 mRNA expression level in colon at 40 mg/kg, po QD for 6 days by RT-PCR analysis; format: functional, organism-based; settings: time 6.0 day
[11] = Acute toxicity in BALB/c mouse assessed as tissue damage in lung at 600 mg/kg,po and measured after 14 days by hematoxylin and eosin staining based microscopy; format: organism-based; settings: in vivo, 336 h, time 14 day
[12] = Apparent volume of distribution during terminal phase in Sprague-Dawley rat at 15 mg/kg, po and measured upto 48 hrs by LC-MS/MS analysis; format: ADME, organism-based; settings: in vivo, read-out: Vz/F
Mus musculus [13] = assay: Anti-inflammatory activity against DSS-induced acute ulcerative colitis in C57BL/6 mouse model assessed as decrease in IL-17 production in colon at 40 mg/kg, po QD for 6 days by ELISA; format: functional; parameters: scale not given: the % may be the effect or the level left; settings: time 6 day
[14] = Cmax in Sprague-Dawley rat at 15 mg/kg, po and measured upto 48 hrs by LC-MS/MS analysis; format: ADME, organism-based; parameters: dose 15 mg/kg, time < 48 hrs, route po; settings: in vivo
Mus musculus [15] = assay: Anti-inflammatory activity against DSS-induced acute ulcerative colitis in C57BL/6 mouse model assessed as decrease in IL-6 production in colon at 40 mg/kg, po QD for 6 days by ELISA; format: functional; parameters: scale not given: the % may be the effect or the level left; settings: time 6 day
[16] = Acute toxicity in BALB/c mouse assessed as changes in hemoglobin level in blood at 600 mg/kg,po and measured after 14 days by hematology test; format: organism-based; settings: in vivo, 336 h, time 14 day
[17] = Drug distribution in colon of DSS-induced acute ulcerative colitis in C57BL/6 mouse model at 40 mg/kg,po and measured after 0.5 hrs by LC-MS/MS analysis; format: ADME, organism-based; settings: in vivo
Mus musculus [18] = assay: Anti-inflammatory activity against DSS-induced acute ulcerative colitis in C57BL/6 mouse model assessed as decrease in body weight loss at 80 mg/kg, po QD for 6 days (Rvb= -13.4%); format: functional; parameters: scale not given: the % may be the effect or the level left; settings: time 6 day
[19] = Drug distribution in colon of DSS-induced acute ulcerative colitis in C57BL/6 mouse model at 40 mg/kg,po and measured after 2 hrs by LC-MS/MS analysis; format: ADME, organism-based; settings: in vivo
Mus musculus [20] = assay: Anti-inflammatory activity against DSS-induced acute ulcerative colitis in C57BL/6 mouse model assessed as decrease in body weight loss at 40 mg/kg, po QD for 6 days (Rvb= -13.4%); format: functional; parameters: scale not given: the % may be the effect or the level left; settings: time 6 day
[21] = Acute toxicity in BALB/c mouse assessed as changes in CREA level in serum at 600 mg/kg,po and measured after 14 days by Biochemistry analysis; format: organism-based; settings: in vivo, 336 h, time 14 day
[22] = Acute toxicity in BALB/c mouse assessed as body weight loss at 600 mg/kg,po and measured for 14 days; format: organism-based; settings: in vivo, 336 h, time 14 day
Mus musculus [23] = assay: Anti-inflammatory activity against DSS-induced acute ulcerative colitis in C57BL/6 mouse model assessed as decrease in IL-17 protein level in colon at 20 to 80 mg/kg, po QD for 6 days by ELISA; format: functional, organism-based; settings: dose 20-80 mg/kg, time 6.0 day
[24] = Acute toxicity in BALB/c mouse assessed as changes in ALT level in serum at 600 mg/kg,po and measured after 14 days by Biochemistry analysis; format: organism-based; settings: in vivo, 336 h, time 14 day
[25] = Acute toxicity in BALB/c mouse assessed as changes in WBC level in blood at 600 mg/kg,po and measured after 14 days by hematology test; format: organism-based; settings: in vivo, 336 h, time 14 day
[26] = Acute toxicity in BALB/c mouse assessed as changes in general health status at 600 mg/kg,po and measured for 14 days; format: organism-based; settings: in vivo, 336 h, time 14 day
Mus musculus [27] = assay: Anti-inflammatory activity against DSS-induced acute ulcerative colitis in C57BL/6 mouse model assessed as increase in colon length at 40 mg/kg, po QD for 6 days (Rvb= 5.3cm); format: functional; settings: time 6 day
Mus musculus [28] = assay: Anti-inflammatory activity against DSS-induced acute ulcerative colitis in C57BL/6 mouse model assessed as decrease in IL-1beta mRNA expression level in colon at 40 mg/kg, po QD for 6 days by RT-PCR analysis; format: functional, organism-based; settings: time 6.0 day
[29] = AUCt in Sprague-Dawley rat at 5 mg/kg, iv and measured upto 48 hrs by LC-MS/MS analysis; format: ADME, organism-based; parameters: dose 5 mg/kg, time < 48 hrs, route iv; settings: in vivo
[30] = Acute toxicity in BALB/c mouse assessed as changes in platelet count in blood at 600 mg/kg,po and measured after 14 days by hematology test; format: organism-based; settings: in vivo, 336 h, time 14 day
[31] = Cmax in Sprague-Dawley rat at 5 mg/kg, iv and measured upto 48 hrs by LC-MS/MS analysis; format: ADME, organism-based; parameters: time < 48 hrs, dose 5 mg/kg, route iv; settings: in vivo
[32] = Clearance in Sprague-Dawley rat at 5 mg/kg, iv and measured upto 48 hrs by LC-MS/MS analysis; format: ADME, organism-based; settings: in vivo
[33] = Acute toxicity in BALB/c mouse assessed as changes in ALP level in serum at 600 mg/kg,po and measured after 14 days by Biochemistry analysis; format: organism-based; settings: in vivo, 336 h, time 14 day
Mus musculus [34] = assay: Anti-inflammatory activity against DSS-induced acute ulcerative colitis in C57BL/6 mouse model assessed as decrease in body weight loss at 20 mg/kg, po QD for 6 days (Rvb= -13.4%); format: functional; parameters: scale not given: the % may be the effect or the level left; settings: time 6 day

Nc1nc(-c2cn(Cc3c(F)cccc3Cl)c3ncccc23)ncc1C1CC1
Activity [1]: Non-Toxic | AUC(0-t) at 48 h [2]: 11.6 µg·h/mL | Activity [3]: Non-Toxic | Activity [4]: Non-Toxic | MTD [5]: 600 mg/kg | Activity (Mus musculus [6]): Dose-Dependent Effect | Activity (Mus musculus [7]): 7.4% | Activity (Mus musculus [8]): 84.32% | bioavailability [9]: 21.7% | Activity (Mus musculus [10]): Active | Activity [11]: Non-Toxic | Vd/F [12]: 2.95 L/kg | Activity (Mus musculus [13]): 57.35% | Cmax [14]: 2.68 µg/mL | Activity (Mus musculus [15]): 77.73% | Activity [16]: Non-Toxic | Drug uptake [17]: Active | Activity (Mus musculus [18]): 1.4% | Drug uptake [19]: Active | Activity (Mus musculus [20]): -4.2% | Activity [21]: Non-Toxic | Activity [22]: Non-Toxic | Activity (Mus musculus [23]): Dose-Dependent Effect | Activity [24]: Non-Toxic | Activity [25]: Non-Toxic | Activity [26]: Non-Toxic | Activity (Mus musculus [27]): 6.7 cm | Activity (Mus musculus [28]): Active | AUC(0-t) at 48 h [29]: 17.9 µg·h/mL | Activity [30]: Non-Toxic | Cmax [31]: 12.3 µg/mL | clearance [32]: 0.3 L/h/kg | Activity [33]: Non-Toxic | Activity (Mus musculus [34]): -5.1%
